Patent publication US10550084B2, “Substituted 1-hydroxy-pyridin-2(1H)-ones, and methods of making and using same” (ARBUTUS BIOPHARMA CORPORATION, priority 2017, dated 2020)

What was measured:
Assay type in all cases: cell-based
[1] = system: HA-tagged HBeAg (HBV) in DESHAe82 cells; assay: AlphaLisa eAg: HA-HBeAg level in DESHAe82 cell culture (anti-HBV / anti-cccDNA activity); conditions: Hepatitis B virus, 216 h, read-out: AlphaLisa_eAg EC50
Procedure: Evaluation of anti-HBV activity of the compounds in in vitro cell culture studies was conducted using a modification of the assay system described in Cai et al., 2012, Antimicrobial Agents Chemotherapy 56(8):4277-88, and PCT/EP/2015/06838. In the DESHAe82 cell culture system, the HA epitope-tagged secreted HBV “e antigen” (HBeAg) and HBV precore RNA are produced only from the cccDNA circular template that is formed after HBV replication in absence of Tetracycline (Tet). The DESHAe82 cell line produces high levels of cccDNA synthesis and HA-HBeAg, and high specific readout signals with low noise.
Two assay systems, a chemiluminescence ELISA (CLIA) and a proximity […] assay (AlphaLISA) were developed and used for high-sensitivity detection of HA-tagged HBeAg. To test the compound, DESHAe82 were plated in 96 well tissue-culture treated microtiter plates in DMEM/F12 medium supplemented with 10% fetal bovine serum+1% penicillin-streptomycin with Tet, and incubated in a humidified incubator at 37° C. and 5% CO2 overnight. Next day, the cells were switched to fresh medium without Tet and treated with a test compound, over a range of concentrations (compound is solubilized in 100% DMSO before dilution in cell culture media, and the final DMSO concentration in the assay was 0.5%), and incubated for a duration of 9 days in a humidified incubator at 37° C. and 5% CO2. Untreated negative control samples (0.5% DMSO only) were included on each plate in multiple wells. On day 9, media was harvested and removed to a fresh plate, and level of HA-HBeAg was determined by CLIA or AlphaLISA. Anti-cccDNA activity of each test compound concentration was calculated as a percentage of HA-HBeAg signal detected in negative control samples versus compound-treated samples, and EC50 value for each compound was defined as the concentration that reduced the HA-HBeAg signal by 50%.

[2] = system: HBV rcDNA in HepDE19 cells; assay: HepDE19 assay with bDNA quantitation of HBV rcDNA; conditions: Hepatitis B virus, 168 h, 7 days, top concentration 25 μM, Quantigene 2.0 bDNA, read-out: bDNA_RCDNA EC50
Procedure: (§1) (b) HepDE19 Assay with bDNA Quantitation of HBV rcDNA
(§2) HepDE19 cell culture system is a HepG2 (human hepatocarcinoma) derived cell line that supports HBV DNA replication and cccDNA formation in a tetracycline (Tet)-regulated manner and produces HBV rcDNA and a detectable reporter molecule dependent on the production and maintenance of cccDNA (Guo, et al., 2007, J. Virol. 81:12472-12484). HepDE19 (50,000 cells/well) were plated in 96 well collagen-coated tissue-culture treated microtiter plates in DMEM/F12 medium supplemented with 10% fetal bovine serum, 1% penicillin-streptomycin and 1 μg/mL tetracycline and incubated in a humidified incubator at 37° C. and 5% CO2 overnight. Next day, the cells were switched to fresh medium without tetracycline and incubated for 4 hrs at 37° C. and 5% CO2. The cells were treated with fresh Tet-free medium with compounds at concentrations starting at 25 μM and a serial, ½ log, 8-point, titration series in duplicate. The final DMSO concentration in the assay was 0.5%. The plates were incubated for 7 days in a humidified incubator at 37° C. and 5% CO2. Following a 7 day-incubation, the level of rcDNA present in the inhibitor-treated wells was measured using a Quantigene 2.0 bDNA assay kit (Affymetrix, Santa Clara, Calif.) with HBV specific custom probe set and manufacturer's instructions. In order to differentiate HBV RNaseH inhibitors from other classes of HBV inhibitors (for example, nucleos(t)ide analogs or capsid inhibitors), the assay method was configured by incorporating the quantitation of both the minus-strand and the plus-strand of HBV rcDNA levels using specifically designed HBV probe sets. This is based on the observation that inhibition of RNaseH enzyme activity results in a block of the synthesis of the plus strand synthesis by the viral polymerase that follows the synthesis of the minus-strand of rcDNA (Tavis & Lomonosova, 2015, Antiviral Res. 118:132-138). […] In contrast, treatment with HBV inhibitors such as a nucleos(t)ide analogs or capsid inhibitors reduces the production of both strands of HBV rcDNA in cells. Concurrently, the effect of compounds on cell viability was assessed using replicate plates, plated at a density of 5,000 cells/well and incubated for 4 days, to determine the ATP content as a measure of cell viability using the cell-titer glo reagent (CTG; Promega Corporation, Madison, Wis.) as per manufacturer's instructions. The plates were read using a Victor luminescence plate reader (PerkinElmer Model 1420 Multilabel counter) and the relative luminescence units (RLU) data generated from each well was calculated as % inhibition of the untreated control wells and analyzed using XL-Fit module in Microsoft Excel to determine EC50 and EC90 (bDNA) and CC50 (CTG) values using a 4-parameter curve fitting algorithm.

[3] = system: plus-strand of HBV rcDNA in HepDE19 cells; assay: HepDE19 assay with bDNA quantitation of HBV rcDNA, plus-strand probe set; conditions: Hepatitis B virus, 168 h, 7 days, top concentration 25 μM, Quantigene 2.0 bDNA, plus-strand (PS) rcDNA, read-out: bDNA_RCDNA_PS EC50
Procedure: as §1, §2

SMILES	EC50 [1] [nM]	EC50 [2] [µM]	EC50 [3] [µM]
CC(=NOc1ccccc1)c1c(C)cc(=O)n(O)c1O (mixture of isomers) [Compound 2, (E/Z)-1,6-Dihydroxy-4-methyl-5-(1-(phenoxyimino)ethyl)pyridin-2(1H)-one]	1280	17.1	4.4
CC(=NOc1ccc(F)cc1)c1c(C)cc(=O)n(O)c1O (mixture of isomers) [Compound 3, (E/Z)-5-(1-((4-fluorophenoxy)imino)ethyl)-1,6-dihydroxy-4-methylpyridin-2(1H)-one]	1180	22.2	7.41
CC(=NOCc1ccccc1)c1c(C)cc(=O)n(O)c1O (mixture of isomers) [Compound 4, (E/Z)-5-(1-((Benzyloxy)imino)ethyl)-1,6-dihydroxy-4-methylpyridin-2(1H)-one]	2240	> 25	13.3
CC(=NOCc1ccc(C)cc1)c1c(C)cc(=O)n(O)c1O (mixture of isomers) [Compound 5, (E/Z)-1,6-Dihydroxy-4-methyl-5-(1-(((4-methylbenzyl)oxy)imino)ethyl)pyridin-2(1H)-one]	1570	> 25	3.01
CC(=NOCc1ccc(F)cc1)c1c(C)cc(=O)n(O)c1O (mixture of isomers) [Compound 6, (E/Z)-5-(1-(((4-fluorobenzyl)oxy)imino)ethyl)-1,6-dihydroxy-4-methylpyridin-2(1H)-one]	640	> 25	5.97
COc1ccc(CON=C(C)c2c(C)cc(=O)n(O)c2O)cc1 (mixture of isomers) [Compound 7, (E/Z)-1,6-Dihydroxy-5-(1-(((4-methoxybenzyl)oxy)imino)ethyl)-4-methylpyridin-2(1H)-one]	350	> 25	7.11
CC(=NOCc1ccccc1N)c1c(C)cc(=O)n(O)c1O (mixture of isomers) [Compound 8, (E/Z)-5-(1-(((2-Aminobenzyl)oxy)imino)ethyl)-1,6-dihydroxy-4-methylpyridin-2(1H)-one]	2250	> 25	11.1
CC(=NOCc1ccccc1F)c1c(C)cc(=O)n(O)c1O (mixture of isomers) [Compound 9, (E/Z)-5-(1-(((2-Fluorobenzyl)oxy)imino)ethyl)-1,6-dihydroxy-4-methylpyridin-2(1H)-one]	–	> 25	> 25
COc1ccccc1CON=C(C)c1c(C)cc(=O)n(O)c1O (mixture of isomers) [Compound 10, (E/Z)-1,6-Dihydroxy-5-(1-(((2-methoxybenzyl)oxy)imino)ethyl)-4-methylpyridin-2(1H)-one]	980	> 25	6.53
